Article PMC9038752, “Molecular mechanisms of bifunctional vitamin D receptor agonist-histone deacetylase inhibitor hybrid molecules in triple-negative breast cancer” (Scientific Reports, 2022)

Biological target: T1, VDR (Mus musculus, UniProt P48281)
T1 construct: endogenous in cells; host or cells: 4TO7 and 4T1 mouse triple-negative breast cancer cells
T1 sequence (P48281 1-422): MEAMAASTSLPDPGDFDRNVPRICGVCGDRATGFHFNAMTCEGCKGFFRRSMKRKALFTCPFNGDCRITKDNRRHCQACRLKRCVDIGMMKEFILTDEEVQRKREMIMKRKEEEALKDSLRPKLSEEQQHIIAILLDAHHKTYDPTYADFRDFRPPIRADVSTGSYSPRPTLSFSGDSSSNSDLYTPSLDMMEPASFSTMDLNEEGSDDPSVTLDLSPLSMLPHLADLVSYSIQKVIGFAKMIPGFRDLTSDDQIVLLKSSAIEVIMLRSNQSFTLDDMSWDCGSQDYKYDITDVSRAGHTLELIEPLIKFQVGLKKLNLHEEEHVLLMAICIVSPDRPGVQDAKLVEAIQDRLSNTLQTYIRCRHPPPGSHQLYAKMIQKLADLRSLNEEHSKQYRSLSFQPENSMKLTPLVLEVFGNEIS
Test: Cyp24a1 induction assay for VDR agonism in 4TO7 cells
Type: cell-based
Details: 24 h
Procedure: Figure 5 (a) and (b) Analysis of induced Cyp24a1 expression in 4TO7 (a) and 4T1 (b) cells to test for VDR agonism of DK-406 and heterocyclic analogues after 24 h treatment. c-e. Analysis of the cytotoxicity of hybrid compounds after 24 h using the MTGlo assay (see Methods for details) in 4TO7 (c), 4T1 (d) and MDA-MB-231 (e) cells. […] Each condition was compared to control. *: p ≤ 0.05, **: p ≤ 0.01, ***: p ≤ 0.001, ****: p ≤ 0.0001, ns: not significant.
As previously, we were interested in studying the efficacy of hybrids in models of TNBC. We used the 4T1 cell line[20] as well as the related TNBC cell line 4TO7, which was derived from the same mouse tumor as 4T1 cells in Balb/c mice[33]. 4TO7 cells readily form primary tumors. […] These lines also have the advantage that anti-tumor efficacy studies can be performed in Balb/c mice, which have intact immune systems. Compounds were initially tested for VDR agonist activity in 4TO7 cells by screening induction of the VDR target gene Cyp24a1. […] The pyridyl hybrids were then tested for efficacy in vitro in 4TO7 and 4T1 cells using an MT-Glo assay in which only viable cells can convert a precursor into a substrate for a luciferase bioluminescence assay (Fig. 5c,d; see Methods for details).
Mouse 4T07 cells and 4T01 cells were cultured in DMEM (319–005-CL; WISENT Inc.) supplemented with 10% heat-inactivated FBS. MB-MDA231 cells were cultured in Leibovitz’s L-15 medium with 10% heat-inactivated FBS in the absence of CO2.
RNA extraction was performed with the FavorPrep tissue total RNA mini kit (FAVORGEN Biotech Corporation—FATRK 001) as per manufacturer’s instructions. cDNA was obtained from 1 µg of RNA using 5X All-in-One RT Mastermix (Applied Biological Materials (abm) Inc.—G485) and diluted 5 times. qPCR was performed with BrightGreen 2X q-PCR MasterMix (abm—MasterMix-LR-XL) on a Roche LightCycler 96 system. Expression of targeted genes was normalized to 18S RNA.

| VDR agonist activity (Cyp24a1 induction) | potency in Cyp24a1 induction assay relative to DK-406 | SMILES |
| --- | --- | --- |
| partial agonists | approximately tenfold | CCC(CC)(c1ccc(OCCCCCC(=O)NO)cc1)c1ccc(OCC(O)C(C)(C)C)c(C)n1 (centres unmarked) [AM-193] |
| partial agonists |  | CCC(CC)(c1ccc(C(=O)NCCCCCC(=O)NO)cc1)c1ccc(OCC(O)C(C)(C)C)c(C)c1 (centres unmarked) [DK-406] |
| weakly potent VDR agonists |  | CCC(CC)(c1ccc(OCC(O)C(C)(C)C)c(C)c1)c1ccc(OCCCC(=O)NO)cn1 (centres unmarked) [AM-171] |
| weakly potent VDR agonists |  | CCC(CC)(c1ccc(OCC(O)C(C)(C)C)c(C)c1)c1ccc(OCC(=O)NO)cn1 (centres unmarked) [AM-155] |
